Converted amounts (≈) assume the structure as drawn. Where a name gives a salt, the structure may show the parent alone.
Tests used:
[1] = Dissolution of bendamustine HCl in DMSO/water at 15° C. (Example 6); format: physicochemical
Procedure: 37.5 ml of water was placed in a glass beaker and mixing was initiated at about 350 rpm. 2.1266 g mannitol added and mixed for about 5 minutes. About 12.5 ml of DMSO was added and solution brought to about 15° C. 1.2672 g of bendamustine HCl added and mixed. A milky solution was the result.
The sample was not used for analysis purposes, however, 3 ml of DMSO was added and the sample was cloudy. Another 3 ml of DMSO was added and the solution started to clear up. The addition of DMSO corresponds to about 35% DMSO.

[2] = cited from earlier work
[3] = Water uptake of anhydrous Bendamustine HCl; format: physicochemical
Procedure: Bendamustine HCl was an anhydrous form with a water content level of nmt 1.0%. The Bendamustine HCl used herein was not the Form 1 polymorph and was at least similar to an anhydrous version of the Form 2 polymorph. A sample of Bendamustine HCl anhydrous (with a thickness of about 2 mm was is saturated in water after 60 minutes and the water level reached about 4.7-4.8%. Exposing the Bendamustine HCl to atmospheric conditions for 1 hour caused the % water to increase to about 4.5%, corresponding to the monohydrate form (MW Bendamustine HCl=394.7 g/mol and H2O=18 g/mol; [(394.7+18)/394.7]100=104.6%).

Cn1c(CCCC(=O)O)nc2cc(N(CCCl)CCCl)ccc21 [bendamustine, 4-[5-[Bis(2-chloroethyl)amino]-1-methylbenzimidazol-2-yl]butanoic acid]
DMSO content optimal for dissolution ([1]; at 15° C., DMSO added to sample 6IB130709-1 until the solution started to clear up): more than 35% | solubility in DMSO ([2]; at 25° C., has been reported): 79 mg/mL (≈ 221 mM) | solubility in water ([2]; at 25° C., has been reported): 15 mg/mL (≈ 41.9 mM)

Cn1c(CCCC(=O)O)nc2cc(N(CCCl)CCCl)ccc21 [Bendamustine HCl]
solubility in 75% water ([1]; 25 mg/ml with mannitol 42.5 mg/ml in DMSO 25% v/v in water, about 15° C. (sample 6IB130709-1), a milky solution resulted): not found to be soluble | water level when saturated in water ([3]; anhydrous sample, thickness about 2 mm, after 60 minutes): 4.7-4.8% | % water after exposure to atmospheric conditions ([3]; exposure for 1 hour, corresponds to the monohydrate form): about 4.5% | solubility limit in the preferred Treanda® formulation ([2]; at 5° C., disclosed in U.S. Pat. No. 8,436,190B2): 27 mg/mL

From patent publication US20160235717A1, “BENDAMUSTINE PHARMACEUTICAL COMPOSITIONS” (LUITPOLD PHARMACEUTICALS, INC., priority 2013, published 2016)
